Laboratory results: patent publication US20170184612A1, “USE OF LEUKOCYTES AND NOVEL BIOMARKERS IN THE DIAGNOSIS, CONFIRMATION, AND TREATMENT OF A NEUROLOGICAL DISORDER” (The Trustees of Columbia University in the City of New York, priority 2014, published 2017)

How the values were obtained:
Format in all cases: cell-based, human
[1] = system: peripheral blood mononuclear cells (PBMC), T cells; assay: ELISpot assay, gamma-interferon release (SFC) after stimulation with a-synuclein epitope pools; conditions: for Pool +: IFNg, Pool Stimulated, number of donors with a positive response, Donors tested 1
How it was run: (§1)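 PBMC from PD patients and age-matched controls were isolated by Ficoll gradient centrifugation and stimulated with pools of 122 candidate class I/II and phospho-S129 peptides, with responsive pools deconvoluted to single epitopes. After 22 h at 37 C, spot-forming cells were detected colorimetrically; ≥20 SFC per million cells counted as positive.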

[2] = system: peripheral blood mononuclear cells (PBMC), T cells; assay: ELISpot assay, IFNg and IL-5 reactivity combined, T cell response to α-syn epitopes; conditions: for Peptides + in Patients & Normals: flag 1/0 per peptide; for epitope identified by deconvolution of T cell response, in words: PD patients, region including Y39
Protocol: Blood from age matched controls and PD patients were obtained and mononuclear cells were isolated by gradient centrifugation.
Release of the cytokines gamma-interferon, which measures activation of CD4+ and/or CD8+ T cells, and the interleukin, IL-5, which measures activation of CD4+ T cells was measured by ELISpot assay. […] After 22 hours of stimulation at 37 C, the cells were removed and release of cytokines was measured by colorimetric detection of spot-forming cells (SFC). Confirmed release of cytokine is determined by the presence of a minimum of 20 SFC per million cells.
The binding algorithms in SubAim 1 predict how well the peptides would bind to MHC if present, but not if they are present in patients. To determine this, the presence of T cell response against the candidate antigens by patient blood-derived peripheral blood mononuclear cells (PBMC) is assessed by ELISPOT assays upon stimulation with the peptides. This assay detects and quantifies cytokine release (in this case, IFNγ and IL-5) from specific activated T cells.
Data were obtained from blood samples (25 ml) from 44 PD patients and 24 age-matched controls. The experiments were conducted blindly. PBMCs from these samples were isolated and exposed to pools comprising the 122 candidate class I and class II antigens and phosphorylated S129 epitopes generated in Subaim 1. For the PBMCs responsive to the pooled peptides, the response was then deconvoluted to identify individual epitopes.
PMBC fractions are recovered by standard methods with Ficoll gradient and T cells expansion (Oseroff et al., 2010). The methods for the analysis of T cell reactions and measurement of cytokines production using the enzyme-linked immunosorbent spot (ELISPOT) assay are published in analogous experiments to discover antigens in multiple sclerosis (Lolli et al., 2013) and in hay fever allergens (Oseroff et al., 2010). T cell responses are determined by measuring IFNγ and IL-5 release by ELISPOT. Statistical analysis of differences between populations is expected to be non-parametric and analyzed with the U-Mann-Whitney test. If there were a normal distribution of response, which is a priori unlikely as some patients have no T cell response, with an SD=1, 8 patients per group would be required to provide a p>90% that the study detect a >2 fold difference at a two-sided 0.05 significance level.

[3] = system: peripheral blood mononuclear cells (PBMC), T cells; assay: ELISpot assay, IL-5 release (SFC) after stimulation with a-synuclein epitope pools
How it was run: as §1

[4] = Normals Summary, of donors tested (peptide)
[5] = Normals Summary, single peptide
[6] = Patients Summary, PD patients, of donors tested (peptide)
[7] = Patients Summary, PD patients, single peptide
[8] = number of donors positive to the single peptide, second 'Pool Stimulated' section (from r296), 12 donors tested
[9] = peptide + / donors tested (peptide), second 'Pool Stimulated' section (from r296), 12 donors tested
[10] = single peptide, second 'Pool Stimulated' section (from r296), 12 donors tested
[11] = Patients Summary, Phospho pool peptides
[12] = Patients Summary, Phospho pool peptides, 10 donors tested
[13] = peptides of pool 'Poshpho', 8 donors tested
[14] = peptides of pool 'Poshpho', 8 donors tested, number of donors positive

Substance | IFNg Peptide + (donors positive to the peptide) [1, 6] | IFNg Response Frequency [1, 7] | IFNg Total SFC [1, 7] | IL-g Peptide + (donors positive to the peptide) [3, 6] | IL-g Response Frequency [3, 7] | IL-g Total SFC [3, 7] | IFNg Avg SFC [1, 7] | IFNg Peptide + [1, 8] | IFNg Response Frequency [1, 9] | IL-g Peptide + [3, 8] | IL-g Response Frequency [3, 9] | IL-g Total SFC [3, 10] | Pool + [1] | IL-g Avg SFC [3, 10] | other results
3521.0012 (KTKQGVAEA; listed as Homo sapiens) | 0 | 0% | 0 SFC | 0 | 0% | 0 SFC |  |  |  |  |  |  |  |  | IFNg Peptide + (donors positive to the peptide) [1, 4]: 0; IFNg Response Frequency [1, 5]: 0%; IFNg Total SFC [1, 5]: 0 SFC; Peptides + in Patients & Normals [2]: 0; IL-g Peptide + (donors positive to the peptide) [3, 4]: 0; IL-g Response Frequency [3, 5]: 0%; IL-g Total SFC [3, 5]: 0 SFC
GVLYVGSKTK (listed as Homo sapiens) |  |  |  |  |  |  |  |  |  |  |  |  |  |  | epitope identified by deconvolution of T cell response, in words [2]: antigenic
VLYVGSKTK (listed as Homo sapiens) |  |  |  |  |  |  |  |  |  |  |  |  |  |  | epitope identified by deconvolution of T cell response, in words [2]: antigenic
3521.007 (GVVAAAEKTK; listed as Homo sapiens) | 2 | 67% | 225 SFC | 1 | 33% | 23 SFC | 113 SFC | 0 | 0% | 0 | 0% | 0 SFC |  |  | IFNg Total SFC [1, 10]: 0 SFC; Peptides + in Patients & Normals [2]: 0; IL-g Avg SFC [3, 7]: 23 SFC
3521.0031 (YVGSKTKEGV; listed as Homo sapiens) | 1 | 17% | 153 SFC | 0 | 0% | 0 SFC | 153 SFC |  |  |  |  |  | 0 |  | 
3521.0024 (DPDNEAYEM; listed as Homo sapiens) | 0 | 0% | 0 SFC | 0 | 0% | 0 SFC |  |  | 50% | 1 | 50% | 300 SFC | 0 | 300 SFC | IFNg Total SFC [1, 10]: 93.3 SFC
3521.0069 (GVAEAAGKTK; listed as Homo sapiens) | 1 | 13% | 53 SFC | 0 | 0% | 0 SFC | 53 SFC | 0 | 0% | 0 | 0% | 0 SFC | 0 |  | IFNg Total SFC [1, 10]: 0 SFC
3521.0054 (MPVDPDNEAY; listed as Homo sapiens) | 0 | 0% | 0 SFC | 0 | 0% | 0 SFC |  | 0 | 0% | 1 | 50% | 58 SFC | 0 | 58 SFC | 
3521.0033 (VLYVGSKTKK; listed as Homo sapiens) | 5 | 83% | 1626 SFC | 3 | 50% | 528 SFC | 325 SFC |  |  |  |  |  | 1 |  | IL-g Avg SFC [3, 7]: 176 SFC
3521.0056 (YEMPSEEGYQ; listed as Homo sapiens) | 0 | 0% | 0 SFC | 0 | 0% | 0 SFC |  | 0 | 0% | 1 | 50% | 89 SFC | 0 | 89 SFC | Pool + ([1]; pool 'Phospho' (phosphorylated peptides)): 0; IFNg Response Frequency [1, 11]: 0%; IFNg Total SFC [1, 11]: 0 SFC; IFNg Peptide + (donors positive to the peptide) [1, 12]: 0; IFNg Avg SFC [1, 13]: 100 SFC; IFNg Response Frequency [1, 13]: 13%; IFNg Total SFC [1, 13]: 100 SFC; IFNg Peptide + [1, 14]: 1; IL-g Response Frequency [3, 11]: 0%; IL-g Total SFC [3, 11]: 0 SFC; IL-g Peptide + (donors positive to the peptide) [3, 12]: 0; IL-g Avg SFC [3, 13]: 167 SFC; IL-g Response Frequency [3, 13]: 13%; IL-g Total SFC [3, 13]: 167 SFC; IL-g Peptide + [3, 14]: 1
3521.0009 (LYVGSKTKK; listed as Homo sapiens) | 2 | 33% | 326 SFC | 1 | 17% | 559 SFC | 163 SFC |  |  |  |  |  | 0 |  | IL-g Avg SFC [3, 7]: 559 SFC
3521.0055 (QEGILEDMPV; listed as Homo sapiens) | 0 | 0% | 0 SFC | 0 | 0% | 0 SFC |  | 0 | 0% | 1 | 50% | 58 SFC | 0 | 58 SFC | 
